Here are results for eleven compounds from ChEMBL document CHEMBL1201862, “PubChem BioAssay data set” (2004).

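Exposure lasted 48 hours, with cells grown in 96-well plates and compounds tested at five concentrations. GI50 marks 50% less growth.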 Activity calls are given as the source filed them. Cut-off read from the data, not from the text of the source: active = GI50 up to about 1.1 µM and inactive = higher. Some results are limits rather than exact numbers.

Test systems include DLD-1; DMS-114; DMS-273; HOP-18; M19-MEL; RXF 631; SNB-78; XF498; BT-549.
Holding throughout (test): NCI anticancer screen, dose series, 48 h

For `COc1c(OC2OC(CO)C(O)C(O)C2O)cc2c(c1OC)-c1ccc(OC)c(=O)cc1[C@@H](NC(C)=O)CC2` (some centres not stated), the GI50 is > 100 µM (inactive) with DLD-1; 44.7 µM (inactive) with DMS-114; > 100 µM (inactive) in the experiment on DMS-273; > 100 µM (inactive) with HOP-18; 60.1 µM (inactive) in the experiment on M19-MEL; > 100 µM (inactive) in the experiment with RXF 631. In addition, the GI50 in the experiment with SNB-78 was 61 µM (inactive); in the experiment with XF498, 29.3 µM (inactive).

`NC1=NCC(c2ccccn2)C1c1ccc(F)cc1` (configuration not stated): the GI50 with DLD-1, in the experiment with DMS-114, in the experiment with HOP-18, in the experiment with M19-MEL, in the experiment with RXF 631 and in the experiment on SNB-78 was > 100 µM (inactive) throughout. For the same compound, the GI50 in the experiment with XF498 is > 100 µM (inactive).

On to `N#CC1=C(c2ccccc2)OC2(N)OC(c3ccccc3)=C(C#N)C12C#N` (configuration not stated), for which the GI50 with DLD-1 was > 100 µM (inactive); in the experiment with DMS-114, 51.5 µM (inactive); with DMS-273, > 100 µM (inactive); with HOP-18, 21.6 µM (inactive); in the experiment with M19-MEL, > 100 µM (inactive); in the experiment on RXF 631 it was > 100 µM (inactive). Besides, the GI50 with SNB-78 and in the experiment with XF498 was > 100 µM (inactive) each time.

For `Cc1cc2c(C(C)C)c(O)c(O)c(/C=N\CCO)c2c(O)c1-c1c(C)cc2c(C(C)C)c(O)c(O)c(/C=N/CCO)c2c1O`, the GI50 with DLD-1 is 3.33 µM (inactive); in the experiment with DMS-114, 1.23 µM (inactive); in the experiment on DMS-273 it was 1.62 µM (inactive); in the experiment on HOP-18 it was 1.91 µM (inactive); in the experiment on M19-MEL it was 1.86 µM (inactive); with RXF 631 it was 2.33 µM (inactive). In addition, the GI50 is 3.24 µM (inactive) in the experiment on SNB-78 and 2.87 µM (inactive) in the experiment with XF498.

Regarding `COC(=O)CCC(=O)CC(=O)C(=O)Nc1c(Cl)cc([N+](=O)[O-])cc1Cl`, the GI50 was 65.6 µM (inactive) with DLD-1; 23.5 µM (inactive) in the experiment on DMS-114; > 100 µM (inactive) in the experiment on DMS-273; > 100 µM (inactive) with HOP-18; > 100 µM (inactive) with M19-MEL; > 100 µM (inactive) in the experiment on RXF 631. Moreover, the GI50 with SNB-78 and in the experiment on XF498 was > 100 µM (inactive) throughout.

`CCOc1ccc(NC(=O)CC2C(=O)Nc3ccccc3[S+]2[O-])cc1` (configuration not stated): the GI50 in the experiment with DLD-1 was > 100 µM (inactive); with DMS-273, > 67.1 µM (inactive); in the experiment with HOP-18 it was > 100 µM (inactive); in the experiment on M19-MEL, > 100 µM (inactive); in the experiment with RXF 631, > 84.9 µM (inactive); in the experiment on SNB-78 it was > 100 µM (inactive). For the same compound, in the experiment with XF498, the GI50 was 38.8 µM (inactive).

For `C[C@]12CCNC(=O)C=C1CC[C@@H]1C2CC[C@@]2(C)C1CC[C@@H]2OC(=O)COc1ccc(N(CCCl)CCCl)cc1` (some centres not stated), the GI50 in the experiment with BT-549 was 17.5 µM (inactive); with DLD-1, 4.56 µM (inactive); in the experiment on DMS-273, 0.638 µM (active); with HOP-18, 18.8 µM (inactive); in the experiment on M19-MEL it was 4.91 µM (inactive); in the experiment on RXF 631, 4.71 µM (inactive). Further, the results for the GI50 with SNB-78 and with XF498 were 28.6 µM (inactive) and 1.35 µM (inactive), respectively.

As to `CC[C@@]1(O)C(=O)OCc2c1c(Cl)c1n(c2=O)Cc2cc3ccccc3nc2-1`, the GI50 with BT-549 was 8.67 µM (inactive); with DLD-1, 6.68 µM (inactive); with DMS-114, 1.35 µM (inactive); in the experiment with DMS-273 it was 0.605 µM (active); with HOP-18 it was 3.21 µM (inactive); in the experiment with M19-MEL, 1.67 µM (inactive). Also, the GI50 in the experiment on RXF 631 is 2.48 µM (inactive); in the experiment with SNB-78 it was 7.18 µM (inactive); in the experiment with XF498, 3.07 µM (inactive).

As to `Cc1ccc(S(=O)(=O)NC2(C=O)CCC(C(C)(C)C)CC2)cc1` (configuration not stated), the GI50 in the experiment on DLD-1 was 35.2 µM (inactive); in the experiment on DMS-114 it was 20.4 µM (inactive); in the experiment with DMS-273, 27.7 µM (inactive); with HOP-18 it was 29.2 µM (inactive); in the experiment on M19-MEL, 24.7 µM (inactive); in the experiment with RXF 631, 31.8 µM (inactive). Besides, the GI50 in the experiment with SNB-78 is > 100 µM (inactive); in the experiment with XF498, 43.8 µM (inactive).

As for `O=[N+]([O-])c1ccc(C2CC(c3ccccc3Cl)=Nc3ccccc3[S+]2[O-])cc1` (configuration not stated), the GI50 in the experiment with BT-549 is 13.7 µM (inactive); in the experiment on DLD-1, 2.06 µM (inactive); in the experiment on DMS-114, 2.05 µM (inactive); in the experiment on DMS-273 it was 2.95 µM (inactive); with HOP-18 it was 14.1 µM (inactive); in the experiment with M19-MEL it was 2.77 µM (inactive). For the same compound, the GI50 with RXF 631 is 5.27 µM (inactive); in the experiment on SNB-78 it was 13.1 µM (inactive); with XF498 it was 5.89 µM (inactive).

In the case of `Cn1c2ccccc2c(=O)c2c(O)cc3c(c21)CC(C1(C)CO1)O3` (configuration not stated), the GI50 was 1.67 µM (inactive) in the experiment with BT-549; 3.64 µM (inactive) in the experiment with DLD-1; 2.13 µM (inactive) with DMS-114; 21.9 µM (inactive) in the experiment with DMS-273; 32.3 µM (inactive) in the experiment with HOP-18; 3.61 µM (inactive) in the experiment with RXF 631. Also, the GI50 with XF498 was 1.88 µM (inactive).
